The test concerns P335 leukemia ip, BDF1 mice, survival T/C %. The experiment in a line: NCI In Vivo Anticancer Drug Screen. Data for tumor model P335 Leukemia (intraperitoneal) in B6D2F1 (BDF1) mice. The conditions noted are these: endpoint: mean survival time, higher = longer survival. As to the method:
The antitumor activity of compounds was measured in mice bearing transplantable tumors. Survival or tumor size were measured and the results are expressed as the measurement made in the treated group (T) divided by the measurement made in the vehicle treated control group (C). The tumor model used in this assay is P335 Leukemia (intraperitoneal) in B6D2F1 (BDF1) mice

The mark [1] stands for this setting: dose: 16.0 mg/kg/injection, schedule: Q01DX Z (sc), vehicle: steriod suspending solution.
Setting [2] is: dose: 31.0 mg/kg/injection, schedule: Q01DX Z (sc), vehicle: steriod suspending solution.
The mark [3] stands for this setting: dose: 62.5 mg/kg/injection, schedule: Q01DX Z (sc), vehicle: steriod suspending solution.
Where [4] appears, read: dose: 125.0 mg/kg/injection, schedule: Q01DX Z (sc), vehicle: steriod suspending solution.
Setting [5] is: dose: 250.0 mg/kg/injection, schedule: Q01DX Z (sc), vehicle: steriod suspending solution.
[6] abbreviates: dose: 500.0 mg/kg/injection, schedule: Q01DX Z (sc), vehicle: steriod suspending solution.

This passage reports T/C results from PubChem BioAssay AID224 (DTP/NCI, 2004).

SMILES strings stand for the structures. “And” between values parts separate entries of the source, which are not always exact repeats. Equal values may be shown once. Inconclusive results and toxic doses are left out.

For `CCC(=O)O[C@H]1CC[C@H]2[C@@H]3CCC4=CC(=O)CC[C@]4(C)[C@H]3CC[C@]12C`, the T/C was 114 % of control (dose: 23.43 mg/kg/injection, schedule: Q01DX Z (sc), vehicle: steriod suspending solution); 106 % of control (dose: 60.0 mg/kg/injection, schedule: Q01DX Z (sc), vehicle: steriod suspending solution); 114 % of control (dose: 93.75 mg/kg/injection, schedule: Q01DX Z (sc), vehicle: steriod suspending solution); 122 % of control (dose: 300.0 mg/kg/injection, schedule: Q01DX Z (sc), vehicle: steriod suspending solution); 107 % of control (dose: 375.0 mg/kg/injection, schedule: Q01DX Z (sc), vehicle: steriod suspending solution); 98 % of control and 113 % of control (dose: 1500.0 mg/kg/injection, schedule: Q01DX Z (sc), vehicle: steriod suspending solution).

As for `C[C@]12CCC(=O)C[C@H]1CC[C@@H]1[C@@H]2CC[C@@]2(C)[C@H]1CC[C@]2(C)O`, the T/C runs as follows: under setting [1], 106 % of control; under setting [2], 93 % of control; under setting [3], 98 % of control and 111 % of control; under setting [4], 111 % of control; under setting [5], 109 % of control; under setting [6], 109 % of control. Also, for the setting “dose: 1000.0 mg/kg/injection, schedule: Q01DX Z (sc), vehicle: steriod suspending solution”, the T/C is 98 % of control.

Consider `C[C@]12CC[C@H](OC3OC(CO)C(O)C(O)C3O)C[C@H]1CC[C@@H]1[C@@H]2CC[C@]2(C)[C@@H](C3=CCOC3=O)CC[C@]12O` (stereo partly drawn), for which the T/C runs as follows: (dose: 0.04 mg/kg/injection, schedule: Q01DX Z (ip), vehicle: saline) 97 % of control; (dose: 0.08 mg/kg/injection, schedule: Q01DX Z (ip), vehicle: saline) 96 % of control; (dose: 0.16 mg/kg/injection, schedule: Q01DX Z (ip), vehicle: saline) 92 % of control; (dose: 0.31 mg/kg/injection, schedule: Q01DX Z (ip), vehicle: saline) 86 % of control.

With `CC(=O)Nc1ccc2nc3ccc(NC(C)=O)cc3[n+](-c3ccccc3)c2c1`, for the setting “dose: 12.5 mg/kg/injection, schedule: Q01DX Z (ip), vehicle: carboxymethylcellulose (CMC)”, the T/C is 98 % of control.

Regarding `CCCCCCCCCCCCNCCCCCCCCCCCC`, the T/C is, setting by setting: (dose: 3.75 mg/kg/injection, schedule: Q01DX Z (ip), vehicle: carboxymethylcellulose (CMC)) 91 % of control; (dose: 7.5 mg/kg/injection, schedule: Q01DX Z (ip), vehicle: carboxymethylcellulose (CMC)) 115 % of control; (dose: 15.0 mg/kg/injection, schedule: Q01DX Z (ip), vehicle: carboxymethylcellulose (CMC)) 92 % of control; (dose: 30.0 mg/kg/injection, schedule: Q01DX Z (ip), vehicle: carboxymethylcellulose (CMC)) 88 % of control.

For the compound `O=c1cn[nH]c(=O)[nH]1`, the T/C by setting is: (dose: 187.5 mg/kg/injection, schedule: Q01DX Z (ip), vehicle: carboxymethylcellulose (CMC)) 88 % of control; (dose: 375.0 mg/kg/injection, schedule: Q01DX Z (ip), vehicle: carboxymethylcellulose (CMC)) 88 % of control; (dose: 750.0 mg/kg/injection, schedule: Q01DX Z (ip), vehicle: carboxymethylcellulose (CMC)) 98 % of control.

For the compound `C[C@]12CCC(=O)C=C1CC[C@@H]1[C@@H]2CC[C@@]2(C)[C@H]1CC[C@]2(C)O`, the T/C was 117 % of control (dose: 0.5 mg/kg/injection, schedule: Q01DX Z (sc), vehicle: steriod suspending solution); 96 % of control (dose: 1.0 mg/kg/injection, schedule: Q01DX Z (sc), vehicle: steriod suspending solution); 121 % of control (dose: 2.0 mg/kg/injection, schedule: Q01DX Z (sc), vehicle: steriod suspending solution); 116 % of control (dose: 4.0 mg/kg/injection, schedule: Q01DX Z (sc), vehicle: steriod suspending solution); 118 % of control (dose: 8.0 mg/kg/injection, schedule: Q01DX Z (sc), vehicle: steriod suspending solution); 116 % of control under setting [1]. Further, the T/C under setting [2] was 116 % of control; the T/C under setting [3] is 106 % of control and 111 % of control; the T/C under setting [4] was 106 % of control; the T/C under setting [5] is 109 % of control; the T/C under setting [6] is 100 % of control.

With `O=C1C(NC(=O)C2CCCCC2)=C(N2CC2)C(=O)C(NC(=O)C2CCCCC2)=C1N1CC1`, the T/C (dose: 150.0 mg/kg/injection, schedule: Q01DX Z (ip), vehicle: carboxymethylcellulose (CMC)) is 103 % of control; the T/C (dose: 300.0 mg/kg/injection, schedule: Q01DX Z (ip), vehicle: carboxymethylcellulose (CMC)) is 101 % of control; the T/C (dose: 600.0 mg/kg/injection, schedule: Q01DX Z (ip), vehicle: carboxymethylcellulose (CMC)) was 106 % of control.

For the compound `O=C(Nc1ccc(NC2=NCCN2)cc1)c1ccc(C(=O)Nc2ccc(NC3=NCCN3)cc2)cc1`, the T/C runs as follows: (dose: 4.0 mg/kg/injection, schedule: Q01DX Z (ip), vehicle: saline) 175 % of control; (dose: 8.0 mg/kg/injection, schedule: Q01DX Z (ip), vehicle: saline) 208 % of control; (dose: 16.0 mg/kg/injection, schedule: Q01DX Z (ip), vehicle: saline) 170 % of control; (dose: 32.0 mg/kg/injection, schedule: Q01DX Z (ip), vehicle: saline) 91 % of control.

With `C=CC(CN1CC1)OC(C)=O` (stereo not drawn), the T/C is 106 % of control (dose: 0.47 mg/kg/injection, schedule: Q01DX Z (ip), vehicle: carboxymethylcellulose (CMC)); 110 % of control (dose: 0.95 mg/kg/injection, schedule: Q01DX Z (ip), vehicle: carboxymethylcellulose (CMC)); 103 % of control (dose: 1.9 mg/kg/injection, schedule: Q01DX Z (ip), vehicle: carboxymethylcellulose (CMC)).

Take `CCCCNc1ncnc2c1cnn2C`: the T/C is 86 % of control (dose: 4.0 mg/kg/injection, schedule: Q01DX Z (ip), vehicle: carboxymethylcellulose (CMC)); 86 % of control (dose: 8.0 mg/kg/injection, schedule: Q01DX Z (ip), vehicle: carboxymethylcellulose (CMC)); 96 % of control (dose: 16.0 mg/kg/injection, schedule: Q01DX Z (ip), vehicle: carboxymethylcellulose (CMC)); 101 % of control (dose: 31.25 mg/kg/injection, schedule: Q01DX Z (ip), vehicle: carboxymethylcellulose (CMC)); 93 % of control (dose: 62.5 mg/kg/injection, schedule: Q01DX Z (ip), vehicle: carboxymethylcellulose (CMC)).

For `CS(=O)(=O)OCCCCOS(C)(=O)=O`, the T/C reads like this: (dose: 0.2 mg/kg/injection, schedule: Q01DX Z (ip), vehicle: methylcellulose (MC)) 87 % of control; (dose: 0.4 mg/kg/injection, schedule: Q01DX Z (ip), vehicle: methylcellulose (MC)) 100 % of control; (dose: 0.8 mg/kg/injection, schedule: Q01DX Z (ip), vehicle: methylcellulose (MC)) 98 % of control; (dose: 1.6 mg/kg/injection, schedule: Q01DX Z (ip), vehicle: methylcellulose (MC)) 89 % of control and 104 % of control; (dose: 6.4 mg/kg/injection, schedule: Q01DX Z (ip), vehicle: methylcellulose (MC)) 94 % of control; (dose: 12.8 mg/kg/injection, schedule: Q01DX Z (ip), vehicle: methylcellulose (MC)) 94 % of control. For the same compound, the T/C (dose: 25.6 mg/kg/injection, schedule: Q01DX Z (ip), vehicle: methylcellulose (MC)) was 87 % of control.

For `O=c1[nH]cc(F)c(=O)[nH]1`, the T/C is, setting by setting: (dose: 0.78 mg/kg/injection, schedule: Q01DX Z (ip), vehicle: saline) 103 % of control; (dose: 2.34 mg/kg/injection, schedule: Q01DX Z (ip), vehicle: saline) 123 % of control; (dose: 4.68 mg/kg/injection, schedule: Q01DX Z (ip), vehicle: saline) 118 % of control; (dose: 9.35 mg/kg/injection, schedule: Q01DX Z (ip), vehicle: saline) 113 % of control; (dose: 12.5 mg/kg/injection, schedule: Q01DX Z (ip), vehicle: saline) 100 % of control; (dose: 18.7 mg/kg/injection, schedule: Q01DX Z (ip), vehicle: saline) 108 % of control. Also, the T/C (dose: 100.0 mg/kg/injection, schedule: Q01DX Z (ip), vehicle: saline) is 93 % of control.

With `Cn1c(N)nc2nc[nH]c2c1=S`, the T/C was 94 % of control (dose: 1.6 mg/kg/injection, schedule: Q01DX Z (ip), vehicle: carboxymethylcellulose (CMC)); 94 % of control (dose: 3.1 mg/kg/injection, schedule: Q01DX Z (ip), vehicle: carboxymethylcellulose (CMC)); 92 % of control (dose: 6.3 mg/kg/injection, schedule: Q01DX Z (ip), vehicle: carboxymethylcellulose (CMC)).
